The values that follow come from paper PMC5786306, “An AKAP-Lbc-RhoA interaction inhibitor promotes the translocation of aquaporin-2 to the plasma membrane of renal collecting duct principal cells” (PLoS ONE, 2018).

Data set [1] concerns AKAP-Lbc-mediated activation of RhoA in HEK293 cells. The experiment in a line: SRE luciferase reporter assay, AKAP-Lbc expressed. Particulars: Scaff10. It is filed as cell-based, human. As to the method: (§1) Luciferase reporter gene assays were performed with the Dual Luciferase Reporter Assay System (Promega) according to manufactures protocol and as previously reported. In brief, HEK293 cells were seeded and co-transfected with the indicated plasmids together with pSRE.L reporter plasmid encoding firefly luciferase (kindly provided from Dr J. Mao and Dr. D. Wu, Rochester, NY) and pRL-TK control vector (Promega, Mannheim, Germany) encoding renilla luciferase. The transfected cells were further cultured in DMEM with 0.5% FCS for 24 h, lysed with passive lysis buffer (Promega). Luciferase activities was measured an Envision Instrument (Perkin Elmer, Rodgau, Germany) in white 96-well plates. […] In Western blots, the protein was detected with primary polyclonal antibody (rabbit; Gramsch, 1:1000). […] AKAP-Lbc was detected with a specific anti-AKAP-Lbc antibody (Abcam; #ab99377; 1:1000). […]
(§2) Fig 7 Scaff10-8 inhibits the AKAP-Lbc-mediated activation of RhoA in cells. […] Statistically significant differences were determined applying one-way ANOVA with posthoc Bonferroni. […]
(§3) in luciferase activity induced by other GEFs. n=3; statistically significant differences were not found, as confirmed by statistical analysis using ANOVA. […] The fraction of active RhoA was determined using Rhotekin pulldown assays as described. […]
(In general: Reporter assays use an easily measured gene product as a stand-in for the process of interest.)

The test system of data set [2] is RhoA activation by other RhoGEFs (p63RhoGEF, Duet, Trio, LARG, Ost1, PDZRhoGEF and others) in HEK293 cells. The experiment in a line: SRE luciferase reporter assay, other RhoGEFs expressed. It is filed as cell-based, human. To be noted: Scaff10 50 μM. How it is done: as §1, §2, §3
Another data set concerns MCD4 cells. The experiment in a line: Uptake into cells by mass spectrometry. Type of data set: in vitro ADME, mouse. To be noted: data not shown.
In data set [3] the test system is Rac1 activity in IMCD cells. The experiment in a line: PAK-1-PBD pull down, Rac1. It is filed as cell-based, rat. To be noted: 30 μM, 1 h. As to the method:
(§4) The (p21) binding domain (PBD) of p21 activated kinase 1 protein (PAK-1) spans amino acids 67–150 of PAK-1 and binds specifically to the GTP-bound Rac-1 and Cdc42. The PBD was prepared as described and used for selective precipitation of the activated GTPases from IMCD cells. The PBD was expressed as a GST-fusion protein in DH5α E-coli cells, the cells were lysed using a French press, and the fusion protein was purified with Glutathione Sepharose 4 Fast Flow GST-tagged protein purification resin kit according to the manufacturer’s instructions (GE Healthcare; #17-5132-01). The PAK-1-PBD pull down was carried out with 400–500 μg protein from IMCD cell lysates. Proteins were eluted from the beads by boiling with Laemmli sample buffer, and analyzed by Western blotting. The membranes were first probed for Cdc42, and the GTP-bound active fraction of the protein was related to total Cdc42, and to the loading control GAPDH. The membranes were re-probed for Rac-1 accordingly to determine the active GTP-bound Rac-1 fraction.
(§5) Fig 10 Scaff10-8 inhibits activation of RhoA in primary IMCD cells. IMCD cells were incubated with Scaff10-8 (30 μM, 1 h). DMSO (1%), the solvent of Scaff10-8, served as a control. […] Signals were semiquantitatively analyzed by densitometry. […] Statistically significant differences were determined using one-way ANOVA with posthoc Bonferroni. […]

Data set [4] relates to Cdc42 activity in IMCD cells. The experiment in a line: PAK-1-PBD pull down, Cdc42. Type of data set: cell-based, rat. Particulars: 30 μM, 1 h. How it is done:
as §4, §5

Molecules are shown by their SMILES. Entries after “also recorded” stand apart in the source; their conditions may differ.

As for `COc1ccc(-c2coc3cc4oc(=O)c(C)c(C)c4cc23)cc1` [Scaff10, 3-(4-Methoxyphenyl)-5,6-dimethyl-furo[3,2-g]chromen-7-one], in data set [1], the “AKAP-Lbc-mediated activation of RhoA (SRE luciferase activity)” value was “selectively inhibited; also recorded: concentration-dependently inhibits”. The “luciferase activity induced by other GEFs” value in data set [2] is reported as “does not affect”.

Turning to `COc1ccc(-c2coc3cc4oc(=O)c(CCC(=O)O)c(C)c4cc23)cc1` [Scaff10-8, 3-[3-(4-Methoxyphenyl)-5-methyl-7-oxo-furo[3,2-g]chromen-6-yl] propanoic acid], the uptake into cells entry in the data set with MCD4 cells is recorded as “confirmed the uptake”. Also, the “activity of Rac1” value in data set [3] was “did not influence activities”. Also, the “activity of Cdc42” value in data set [4] is recorded as “did not influence activities”.
